Target: influenza A virus minigenome (PB2, PB1, PA, NP proteins) (UniProt P04665)
Format: cell-based
Settings: read-out: RNP_ Hubei B IC50

Chain of influenza A virus minigenome (PB2, PB1, PA, NP proteins) (P04665 whole entry): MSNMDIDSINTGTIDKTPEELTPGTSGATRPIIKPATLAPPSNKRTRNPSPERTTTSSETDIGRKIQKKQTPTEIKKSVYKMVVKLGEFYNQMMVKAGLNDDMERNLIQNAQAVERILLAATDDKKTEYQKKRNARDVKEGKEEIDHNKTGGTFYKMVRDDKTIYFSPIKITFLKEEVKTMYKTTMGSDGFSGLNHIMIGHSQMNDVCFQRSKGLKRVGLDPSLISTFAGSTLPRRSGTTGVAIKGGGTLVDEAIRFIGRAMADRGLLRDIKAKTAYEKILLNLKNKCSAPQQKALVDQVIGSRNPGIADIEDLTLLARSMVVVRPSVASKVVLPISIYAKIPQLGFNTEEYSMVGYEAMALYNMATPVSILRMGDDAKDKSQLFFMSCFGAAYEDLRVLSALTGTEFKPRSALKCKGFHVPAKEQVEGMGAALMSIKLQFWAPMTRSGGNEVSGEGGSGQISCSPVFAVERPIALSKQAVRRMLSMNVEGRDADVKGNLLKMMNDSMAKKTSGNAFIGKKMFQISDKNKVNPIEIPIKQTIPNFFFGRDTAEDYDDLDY

Row | Structure (SMILES) | IC50 [µM]
1 | CN(C)C[C@]1(C)COC[C@@H](COc2ccc(-c3cc(C(N)=O)c(=O)[nH]c3C(F)(F)F)cc2)O1 [Example 424, 5-(4-(((2S,6R)-6-((dimethylamino)methyl)-6-methyl-1,4-dioxan-2-yl)methoxy)phenyl)-2-oxo-6-(trifluoromethyl)-1,2-dihydropyridine-3-carboxamide] | 5 to 10
2 | CC1(COc2ccc(-c3cc(C(N)=O)c(=O)[nH]c3C(F)(F)F)cc2)COCCOC1 [Example 321, 5-(4-((6-methyl-1,4-dioxepan-6-yl)methoxy)phenyl)-2-oxo-6-(trifluoromethyl)-1,2-dihydropyridine-3-carboxamide] | 5 to 10
3 | C[C@@]12O[C@@H](COc3ccc(-c4cc(C(N)=O)c(=O)[nH]c4C(F)(F)F)cc3)CO[C@@H]1C2(F)F [Example 396, 5-(4-(((1R,3R,6S)-7,7-difluoro-1-methyl-2,5-dioxabicyclo[4.1.0]heptan-3-yl)methoxy)phenyl)-2-oxo-6-(trifluoromethyl)-1,2-dihydropyridine-3-carboxamide] | 5 to 10
4 | NC(=O)c1cc(-c2ccc(OCC3COC(CF)CO3)cc2)c(C(F)(F)F)[nH]c1=O (single isomer, unassigned) [Example 341, 5-(4-((5-(fluoromethyl)-1,4-dioxan-2-yl)methoxy)phenyl)-2-oxo-6-(trifluoromethyl)-1,2-dihydropyridine-3-carboxamide] | 5 to 10
5 | C[C@@]1(CN2CC(F)C2)COC[C@@H](COc2ccc(-c3cc(C(N)=O)c(=O)[nH]c3C(F)(F)F)cc2)O1 [Example 421] | 5 to 10
6 | CC1(C)CC[C@@H](COc2ccc(-c3cc(C(N)=O)c(=O)[nH]c3C(F)(F)F)cc2)O1 [Example 300, (S)-5-(4-((5,5-dimethyltetrahydrofuran-2-yl)methoxy)phenyl)-2-oxo-6-(trifluoromethyl)-1,2-dihydropyridine-3-carboxamide] | 10 to 25
7 | NC(=O)c1cc(-c2ccc(OC[C@@H]3COCC4(COC4)O3)cc2)c(C(F)(F)F)[nH]c1=O [Example 415, (S)-5-(4-((2,5,8-trioxaspiro[3.5]nonan-6-yl)methoxy)phenyl)-2-oxo-6-(trifluoromethyl)-1,2-dihydropyridine-3-carboxamide] | 5 to 10
8 | NC(=O)c1cc(-c2ccc(OCc3cocn3)cc2)c(C(F)(F)F)[nH]c1=O [Example 266, 5-(4-(oxazol-4-ylmethoxy)phenyl)-2-oxo-6-(trifluoromethyl)-1,2-dihydropyridine-3-carboxamide] | 25 to 50
9 | COC[C@@H]1COC[C@@H](COc2ccc(-c3cc(C(N)=O)c(=O)[nH]c3C(F)(F)F)cc2)O1 [Example 399, 5-(4-(((2S,6R)-6-(methoxymethyl)-1,4-dioxan-2-yl)methoxy)phenyl)-2-oxo-6-(trifluoromethyl)-1,2-dihydropyridine-3-carboxamide] | 5 to 10
10 | Cn1cc(COc2ccc(-c3cc(C(N)=O)c(=O)[nH]c3C(F)(F)F)cc2)cn1 [Example 220, 5-(4-((1-methyl-1H-pyrazol-4-yl)methoxy)phenyl)-2-oxo-6-(trifluoromethyl)-1,2-dihydropyridine-3-carboxamide] | 25 to 50
11 | NC(=O)c1cc(-c2ccc(OCC3COCC(CO)O3)cc2)c(C(F)(F)F)[nH]c1=O (centres unmarked) [Example 384, 5-(4-((6-(hydroxymethyl)-1,4-dioxan-2-yl)methoxy)phenyl)-2-oxo-6-(trifluoromethyl)-1,2-dihydropyridine-3-carboxamide] | 5 to 10
12 | NC(=O)c1cc(-c2ccc(OCC3COCC(Cn4cccn4)O3)cc2)c(C(F)(F)F)[nH]c1=O (single isomer, unassigned) [Example 376, 5-(4-((6-((1H-pyrazol-1-yl)methyl)-1,4-dioxan-2-yl)methoxy)phenyl)-2-oxo-6-(trifluoromethyl)-1,2-dihydropyridine-3-carboxamide] | 5 to 10
13 | NC(=O)c1cc(-c2ccc(OCC3COCC(Cn4cccc4)O3)cc2)c(C(F)(F)F)[nH]c1=O (single isomer, unassigned) [Example 374, 5-(4-((6-((1H-pyrrol-1-yl)methyl)-1,4-dioxan-2-yl)methoxy)phenyl)-2-oxo-6-(trifluoromethyl)-1,2-dihydropyridine-3-carboxamide] | 5 to 10
14 | CCn1nccc1COc1ccc(-c2cc(C(N)=O)c(=O)[nH]c2C(F)(F)F)cc1 [Example 217, 5-(4-((1-ethyl-1H-pyrazol-5-yl)methoxy)phenyl)-2-oxo-6-(trifluoromethyl)-1,2-dihydropyridine-3-carboxamide] | 25 to 50
15 | NC(=O)c1cc(-c2ccc(OC[C@H]3COC[C@H](C4CC4)O3)cc2)c(C(F)(F)F)[nH]c1=O [Example 327, 5-(4-(((2R,6S)-6-cyclopropyl-1,4-dioxan-2-yl)methoxy)phenyl)-2-oxo-6-(trifluoromethyl)-1,2-dihydropyridine-3-carboxamide] | 5 to 10
16 | COCC[C@@]1(C)COC[C@@H](COc2ccc(-c3cc(C(N)=O)c(=O)[nH]c3C(F)(F)F)cc2)O1 [Example 426, 5-(4-(((2S,6S)-6-(2-methoxyethyl)-6-methyl-1,4-dioxan-2-yl)methoxy)phenyl)-2-oxo-6-(trifluoromethyl)-1,2-dihydropyridine-3-carboxamide] | 5 to 10
17 | NC(=O)c1cc(-c2ccc(OCC3COCC(COC4CC(F)(F)C4)O3)cc2)c(C(F)(F)F)[nH]c1=O (single isomer, unassigned) [Example 366, 5-(4-((6-((3,3-difluorocyclobutoxy)methyl)-1,4-dioxan-2-yl)methoxy)phenyl)-2-oxo-6-(trifluoromethyl)-1,2-dihydropyridine-3-carboxamide] | 5 to 10
18 | NC(=O)c1cc(-c2ccc(OCc3cnn(CC4CC4)c3)cc2)c(C(F)(F)F)[nH]c1=O [Example 221, 5-(4-((1-(cyclopropylmethyl)-1H-pyrazol-4-yl)methoxy)phenyl)-2-oxo-6-(trifluoromethyl)-1,2-dihydropyridine-3-carboxamide] | 10 to 25
19 | NC(=O)c1cc(-c2ccc(OCC3COC(C(F)F)CO3)cc2)c(C(F)(F)F)[nH]c1=O (single isomer, unassigned) [Example 347, 5-(4-((5-(difluoromethyl)-1,4-dioxan-2-yl)methoxy)phenyl)-2-oxo-6-(trifluoromethyl)-1,2-dihydropyridine-3-carboxamide] | 5 to 10
20 | C[C@]1(CCF)COC[C@@H](COc2ccc(-c3cc(C(N)=O)c(=O)[nH]c3C(F)(F)F)cc2)O1 [Example 435, 5-(4-(((2S,6S)-6-(2-fluoroethyl)-6-methyl-1,4-dioxan-2-yl)methoxy)phenyl)-2-oxo-6-(trifluoromethyl)-1,2-dihydropyridine-3-carboxamide] | 5 to 10

Same assay, conditions: read-out: RNP_Hubei B

Row | Structure (SMILES) | IC50 [µM]
21 | CC(Oc1ccc(-c2cc(C(N)=O)c(=O)[nH]c2C(F)(F)F)cc1)c1cccc(C#N)c1 (single isomer, unassigned) [Example 97, (R or S)-5-(4-(1-(3-cyanophenyl)ethoxy)phenyl)-2-oxo-6-(trifluoromethyl)-1,2-dihydropyridine-3-carboxamide] | 25 to 50
22 | NC(=O)c1cc(-c2ccc(OCc3ccc4no[n+]([O-])c4c3)cc2)c(C(F)(F)F)[nH]c1=O [Example 94] | 25 to 50
23 | NC(=O)c1cc(-c2ccc(OCc3ccc4cn[nH]c4c3)cc2)c(C(F)(F)F)[nH]c1=O [Example 85, 5-(4-((1H-indazol-6-yl)methoxy)phenyl)-2-oxo-6-(trifluoromethyl)-1,2-dihydropyridine-3-carboxamide] | 25 to 50
24 | Cc1cc(-c2cc(C(N)=O)c(=O)[nH]c2C(F)(F)F)ccc1CN1CCOCC1 [Example 43, 5-(3-methyl-4-(morpholinomethyl)phenyl)-2-oxo-6-(trifluoromethyl)-1,2-dihydropyridine-3-carboxamide] | 1 to 5
25 | CC(C)S(=O)(=O)N1CCOC(COc2ccc(-c3cc(C(N)=O)c(=O)[nH]c3C(F)(F)F)cc2)C1 (centres unmarked) [Example 191, 5-(4-((4-(isopropylsulfonyl)morpholin-2-yl)methoxy)phenyl)-2-oxo-6-(trifluoromethyl)-1,2-dihydropyridine-3-carboxamide] | 25 to 50
26 | NC(=O)c1cc(-c2ccccc2)c(C(F)(F)F)[nH]c1=O [Example 16, 2-oxo-5-phenyl-6-(trifluoromethyl)-1,2-dihydropyridine-3-carboxamide] | 25 to 50
27 | NC(=O)c1cc(-c2ccc(CC3(F)CCOCC3)cc2)c(C(F)(F)F)[nH]c1=O [Example 51, 5-(4-((4-fluorotetrahydro-2H-pyran-4-yl)methyl)phenyl)-2-oxo-6-(trifluoromethyl)-1,2-dihydropyridine-3-carboxamide] | 5 to 10
28 | N#Cc1cncc(COc2ccc(-c3cc(C(N)=O)c(=O)[nH]c3C(F)(F)F)cc2)c1 [Example 99, 5-(4-((5-cyanopyridin-3-yl)methoxy)phenyl)-2-oxo-6-(trifluoromethyl)-1,2-dihydropyridine-3-carboxamide] | 25 to 50
29 | CO[C@H]1CCN(Cc2ccc(-c3cc(C(N)=O)c(=O)[nH]c3C(F)(F)F)cc2)C1 [Example 40, (S)-5-(4-((3-methoxypyrrolidin-1-yl)methyl)phenyl)-2-oxo-6-(trifluoromethyl)-1,2-dihydropyridine-3-carboxamide] | 25 to 50
30 | CO[C@@H]1CCN(Cc2ccc(-c3cc(C(N)=O)c(=O)[nH]c3C(F)(F)F)cc2)C1 [Example 41, (R)-5-(4-((3-methoxypyrrolidin-1-yl)methyl)phenyl)-2-oxo-6-(trifluoromethyl)-1,2-dihydropyridine-3-carboxamide] | 25 to 50
31 | Cn1cc(COc2ccc(-c3cc(C(N)=O)c(=O)[nH]c3C(F)(F)F)cc2)c(C(F)(F)F)n1 [Example 109, 5-(4-((1-methyl-3-(trifluoromethyl)-1H-pyrazol-4-yl)methoxy)phenyl)-2-oxo-6-(trifluoromethyl)-1,2-dihydropyridine-3-carboxamide] | 25 to 50
32 | NC(=O)c1cc(-c2ccc(OCC3CNCCCO3)cc2)c(C(F)(F)F)[nH]c1=O (centres unmarked) [Example 195, 5-(4-((1,4-oxazepan-2-yl)methoxy)phenyl)-2-oxo-6-(trifluoromethyl)-1,2-dihydropyridine-3-carboxamide] | 25 to 50

From patent US20240360082A1, “SUBSTITUTED PYRIDONE COMPOUNDS USEFUL TO TREAT ORTH[…]” (priority 2021, published 2024)
